{
  "source": "patent US10980899B2",
  "about": "“Differential diagnosis” (GE Healthcare Limited, priority 2016, dated 2021)",
  "key": {"SERT [1]": {"biological_target": "T1, SERT (Homo sapiens, UniProt P31645)", "T1 construct": "from tissue; host or cells: living patients' brain: hypothalamus, thalamus, pons (extrastriatal regions)", "T1 sequence (P31645 whole entry)": "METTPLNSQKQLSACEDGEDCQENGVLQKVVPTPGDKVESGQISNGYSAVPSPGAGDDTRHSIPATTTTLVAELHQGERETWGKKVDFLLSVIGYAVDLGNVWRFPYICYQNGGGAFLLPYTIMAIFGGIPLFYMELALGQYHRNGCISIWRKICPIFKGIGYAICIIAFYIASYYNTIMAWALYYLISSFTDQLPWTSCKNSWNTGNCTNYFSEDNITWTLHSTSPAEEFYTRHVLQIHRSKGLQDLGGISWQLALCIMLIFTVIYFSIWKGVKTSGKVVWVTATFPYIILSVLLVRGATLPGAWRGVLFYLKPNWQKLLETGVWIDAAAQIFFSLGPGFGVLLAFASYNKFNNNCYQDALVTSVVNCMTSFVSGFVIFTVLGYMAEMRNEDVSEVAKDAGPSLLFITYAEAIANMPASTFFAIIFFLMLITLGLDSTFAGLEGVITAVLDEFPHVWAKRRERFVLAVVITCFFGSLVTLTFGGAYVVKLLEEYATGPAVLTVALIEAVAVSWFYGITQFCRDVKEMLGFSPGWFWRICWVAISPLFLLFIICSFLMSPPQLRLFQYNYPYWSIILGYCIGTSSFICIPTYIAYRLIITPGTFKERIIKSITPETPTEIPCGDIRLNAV", "settings": "cited from earlier work"}, "[2]": {"biological_target": "serotonin transporter (SERT) (Homo sapiens, UniProt P31645)", "sequence (P31645 whole entry, species assumed)": "as the sequence (P31645 whole entry) above", "settings": "Abi-Dargham et al. 1996; cited from earlier work"}, "DAT": {"biological_target": "DAT (Homo sapiens, UniProt Q01959)", "sequence (Q01959 whole entry)": "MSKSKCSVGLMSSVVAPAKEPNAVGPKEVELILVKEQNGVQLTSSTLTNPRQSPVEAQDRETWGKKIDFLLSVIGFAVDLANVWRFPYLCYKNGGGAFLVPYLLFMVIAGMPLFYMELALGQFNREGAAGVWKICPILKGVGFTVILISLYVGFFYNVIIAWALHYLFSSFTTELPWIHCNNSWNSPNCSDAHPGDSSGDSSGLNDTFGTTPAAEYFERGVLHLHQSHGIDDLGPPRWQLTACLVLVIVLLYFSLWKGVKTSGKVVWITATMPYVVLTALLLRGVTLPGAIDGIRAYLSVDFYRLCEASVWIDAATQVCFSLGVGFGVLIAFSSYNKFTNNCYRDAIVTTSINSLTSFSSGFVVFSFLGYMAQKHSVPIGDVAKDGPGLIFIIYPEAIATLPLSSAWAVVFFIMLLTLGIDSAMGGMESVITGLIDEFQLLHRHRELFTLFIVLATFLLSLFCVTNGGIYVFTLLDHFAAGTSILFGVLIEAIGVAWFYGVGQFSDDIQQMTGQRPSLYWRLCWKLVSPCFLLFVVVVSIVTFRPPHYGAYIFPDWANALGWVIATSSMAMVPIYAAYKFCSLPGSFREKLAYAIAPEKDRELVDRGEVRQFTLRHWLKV", "settings": "without SSRI users, reference cerebellum", "excerpt": "For this retrospective study, a selection was made from a database of patients diagnosed with either PD, MSA or PSP and for whom a [^123I]FP-CIT-SPECT scan was available. Diagnoses of patients were verified using their medical records. Patients no longer receiving treatment or clinical follow-up were approached by letter and diagnoses were retrieved from their current attending neurologist. This procedure was approved by the local Medical Ethics Committee of the VUmc and all patients provided written informed consent. […] Prior to analysis of [^123I]FP-CIT-SPECT binding ratios (BR), MSA and PSP patients were manually age and gender-matched with 30 PD patients from a research database.\nAll patients received oral potassium perchlorate to block thyroid uptake of free radioactive iodide. [^123I]FP-CIT was injected intravenously 3 hours before image acquisition at an approximate dose of 185 MBq (specific activity >185 MBq/nmol; radiochemical purity >99%). Subjects were imaged using a dual-head gamma camera (E.Cam; Siemens. Munich. Germany) with a fan-beam collimator. 60×30 second views per head over a 180° orbit on a 128×128 pixel matrix were acquired resulting in a total imaging time of 30 minutes. Image reconstruction was performed using a filtered back projection with a Butterworth filter (order 8. cut-off 0.6 cycles/cm; voxel size: 3.9 mm^3 after reconstruction). Scans were reoriented manually to ensure that left and right striatum were aligned.\nROIs were defined for the DAT-rich caudate nucleus and the SERT-rich thalamus from the automated anatomical labelling (AAL) atlas; the DAT-rich posterior putamen was bilaterally based on the AAL atlas as described elsewhere (Vriend, C. et al. 2014 Mov Disord; 29: 904-11) the SERT-rich pons ROI was based on the Talairach Daemon (TD) Lobes atlas; and the SERT-rich hypothalamus ROI was based on the TD Brodmann area+atlas and 2× dilated. All of these ROIs are implemented in the WFU Pickatlas 3.0 (Wake Forest University, Winston-Salem, N.C., USA).\nNon-specific [^123I]FP-CIT binding in the cerebellum was used as a reference (REF) (WFU Pickatlas, AAL atlas; bilateral Crus 2), because the cerebellum is relatively devoid of DAT and SERT. The ratio of specific to non-specific binding (BR), was calculated in Statistical Parametric Mapping Software version 8 (SPM8; Wellcome Trust Centre for Neuroimaging. London. UK) by: [(ROI−REF)/REF], and used as the outcome measure.\nPatient analyses were grouped by diagnosis (PD; MSA-P; MSA-C; PSP). MSA was split, since a difference is expected between DAT binding in MSA-P and MSA-C (Munoz E., et al. 2011 J Neurol; 258: 2248-2253).\nFor the ROI analysis, normality of data was assessed by plotting histograms, examining Q-Q plots and Kolmogorov-Smirnov test for normality. One-way ANOVA tests were used where appropriate. Post-hoc testing was done with Hochberg GT2 correction. An alpha level of 0.05 was used.\nROI analysis in groups without SSRI users (total group n=48: MSA-C=7; MSA-P=6; PSP=10; PD=25)"}, "SERT [3]": {"biological_target": "T1, SERT", "experiment": "Voxel-based analysis of [123I]FP-CIT SPECT, extrastriatal binding", "type": "in vivo", "settings": "groups without SSRI users", "experimental": "All voxels in the [^123I]FP-CIT SPECT scan were adjusted by the mean binding in the cerebellar reference region according to: [(voxel−REF)/REF]. Voxel-based between-group analyses were performed in SPM8 and explicitly masked for the relevant ROI, using the same masks as the ROI analysis. Statistical threshold was set to P<0.05, Family-Wise Error (FWE) corrected for multiple comparisons, Ke>0. Age was included as nuisance covariate in all analyses.\nMasks were based on the Automated anatomical labeling (AAL) atlas and created with the Wake-Forest University PickAtlas tool 3.0. Finally, the results of groups on SSRIs versus not being on a SSRI while scanned were compared with a ROI analysis.\nVoxel-Based, Groups without SSRI Users, Extrastriatal Binding"}, "[4]": {"biological_target": "dopamine transporter (DAT) (Homo sapiens, UniProt Q01959)", "sequence (Q01959 whole entry, species assumed)": "as the sequence (Q01959 whole entry) above", "settings": "presynaptic membrane of dopaminergic neurons; cited from earlier work"}, "SERT [5]": {"biological_target": "T1, SERT", "experiment": "[123I]FP-CIT SPECT ROI analysis, extrastriatal (hypothalamus) binding ratios", "type": "in vivo", "settings": "without SSRI users, reference cerebellum", "excerpt": "Diagnoses of patients were verified using their medical records. […]\nOne-way ANOVA tests were used where appropriate. Post-hoc testing was done with Hochberg GT2 correction. An alpha level of 0.05 was used."}},
  "note": "Read-outs that look alike come from different tables or passages of the source.",
  "data": [
    {"smiles": "COC(=O)[C@H]1[C@@H](c2ccc([123I])cc2)C[C@@H]2CC[C@H]1N2CCCF", "note": "[[^123I]FP-CIT, [^123I]N-w-fluoropropyl-2β-carbomethoxy-3β-(4-iodophenyl) nortropane]", "values": [
      {"measurement": "hypothalamus binding, MSA-P and PSP vs PD", "setting": "SERT [1]; Joling et al. 2016", "value": "lower binding in the hypothalamus in MSA-P and PSP patients than in PD patients"},
      {"measurement": "midbrain binding, PSP vs PD", "setting": "SERT [1]; Roselli et al. 2010", "value": "lower in PSP patients than in PD patients"},
      {"measurement": "affinity for the serotonin transporter (SERT)", "setting": "[2]", "value": "modest affinity"},
      {"measurement": "mean [123I]FP-CIT binding ratio, left caudate", "setting": "DAT; MSA-C patients", "value": 1.99},
      {"measurement": "mean [123I]FP-CIT binding ratio, left posterior putamen", "setting": "DAT; MSA-C patients", "value": 2.12},
      {"measurement": "mean [123I]FP-CIT binding ratio, right caudate", "setting": "DAT; MSA-C patients", "value": 2.16},
      {"measurement": "mean [123I]FP-CIT binding ratio, right posterior putamen", "setting": "DAT; MSA-C patients", "value": 1.95},
      {"measurement": "mean [123I]FP-CIT binding ratio, left posterior putamen", "setting": "DAT; MSA-P patients", "value": 1.36},
      {"measurement": "mean [123I]FP-CIT binding ratio, right posterior putamen", "setting": "DAT; MSA-P patients", "value": 1.19},
      {"measurement": "mean [123I]FP-CIT binding ratio, left caudate", "setting": "DAT; PD patients", "value": 1.87},
      {"measurement": "mean [123I]FP-CIT binding ratio, left posterior putamen", "setting": "DAT; PD patients", "value": 1.58},
      {"measurement": "mean [123I]FP-CIT binding ratio, right caudate", "setting": "DAT; PD patients", "value": 1.92},
      {"measurement": "mean [123I]FP-CIT binding ratio, left caudate", "setting": "DAT; PSP patients", "value": 1.28},
      {"measurement": "mean [123I]FP-CIT binding ratio, left posterior putamen", "setting": "DAT; PSP patients", "value": 1.29},
      {"measurement": "mean [123I]FP-CIT binding ratio, right caudate", "setting": "DAT; PSP patients", "value": 1.39},
      {"measurement": "hypothalamus binding ratios, between-group comparison (voxel-based)", "setting": "SERT [3]; MSA-C vs PSP", "value": "higher binding ratios in hypothalamus in MSA-C than in PSP"},
      {"measurement": "hypothalamus binding, between-group comparison (voxel-based)", "setting": "SERT [3]; PD vs MSA-P or PSP", "value": "statistically significantly higher in PD than in MSA-P or PSP"},
      {"measurement": "affinity to the dopamine transporter (DAT)", "setting": "[4]", "value": "high affinity"},
      {"measurement": "mean hypothalamic [123I]FP-CIT binding ratio", "setting": "SERT [5]; MSA-C patients", "value": 0.78},
      {"measurement": "mean hypothalamic [123I]FP-CIT binding ratio", "setting": "SERT [5]; MSA-P patients", "value": 0.45},
      {"measurement": "mean hypothalamic [123I]FP-CIT binding ratio", "setting": "SERT [5]; PD patients", "value": 0.67},
      {"measurement": "mean hypothalamic [123I]FP-CIT binding ratio", "setting": "SERT [5]; PSP patients", "value": 0.47}
    ]}
  ]
}
